# Test results: patent publication US12150935B1, “3-(3-(1,3-dioxoisoindolin-2-yl) propyl)-5-(4-fluorobenzylidene) thiazolidine-2,4-dione as a potential antitumor and apoptotic inducer” (IMAM MOHAMMAD IBN SAUD ISLAMIC UNIVERSITY, priority 2024, dated 2024)
# Legend:
# cervical cancer (HeLa) = experiment: Growth inhibition of cancerous cells, HeLa; assay type: cell-based; conditions: Homo sapiens, concentration of 100 μg/mL, in vitro, read-out: growth inhibition percentage
# Method: (§1) The compound of Formula I was tested for its antitumor activity against various cancer cell lines, in vitro, in non-small cell lung cancer (A549), colorectal carcinoma (HCT116), prostate cancer (PC3), pharynx squamous carcinoma (FaDu), triple-negative breast cancer (MDA-MB-468), cervical cancer (HeLa), and human oral epithelial normal cell line (OEC).
# [1] = system: pharynx squamous carcinoma (FaDu); experiment: Growth inhibition of cancerous cells, FaDu; assay type: cell-based; conditions: Homo sapiens, concentration of 100 μg/mL, in vitro, read-out: growth inhibition percentage
# Method: as §1
# [2] = system: human oral epithelial normal cell line (OEC); experiment: Growth inhibition of normal cells, OEC; assay type: cell-based; conditions: 100 μg/mL, in vitro, read-out: growth inhibition percentage
# Method: as §1
# [3] = system: colorectal carcinoma (HCT116); experiment: Growth inhibition of cancerous cells, HCT116; assay type: cell-based; conditions: Homo sapiens, HCT-116, concentration of 100 μg/mL, in vitro, read-out: growth inhibition percentage
# Method: as §1
# [4] = system: human non-small cell lung cancer (A549); experiment: Growth inhibition of cancerous cells, A549; assay type: cell-based; conditions: concentration of 100 μg/mL, in vitro, read-out: growth inhibition percentage
# Method: as §1
# [5] = system: triple-negative breast cancer (MDA-MB-468); experiment: Growth inhibition of cancerous cells, MDA-MB-468; assay type: cell-based; conditions: Homo sapiens, concentration of 100 μg/mL, in vitro, read-out: growth inhibition percentage
# Method: as §1
# prostate cancer (PC3) = experiment: Growth inhibition of cancerous cells, PC3; assay type: cell-based; conditions: Homo sapiens, concentration of 100 μg/mL, in vitro, read-out: growth inhibition percentage
# Method: as §1
Compound,inhibition at 100 µg/mL (cervical cancer (HeLa)),inhibition at 100 µg/mL [1],inhibition at 100 µg/mL [2],inhibition at 100 µg/mL [3],inhibition at 100 µg/mL [4],melting point,inhibition at 100 µg/mL [5],inhibition at 100 µg/mL (prostate cancer (PC3))
"O=C1S/C(=C/c2ccc(F)cc2)C(=O)N1CCCN1C(=O)c2ccccc2C1=O [Formula I, 3-(3-(1,3-Dioxoisoindolin-2-yl)propyl)-5-(4-fluorobenzylidene) thiazolidine-2,4-dione]",73.1%,86.8%,61.2%,79.3%,79.1%,233 to 234 °C,87.8%,84.3%
"COc1cccc2c1C(=O)c1c(O)c3c(c(O)c1C2=O)C[C@@](O)(C(=O)CO)C[C@@H]3O[C@H]1C[C@H](N)[C@H](O)[C@H](C)O1 [doxorubicin, reference compound]",–,–,57.9%,–,–,–,–,–
